According to PubChem BioAssay AID2060892 (Molecular Pharmacology Branch, DTP, NCI, 2025):

Test system: HOP-62 complex spheroids with HUVEC/MSC, viability
Assay: Anticancer human tumor HOP-62 cell line growth inhibition [RAS];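 note: spheroids exposed to agents for seven days before readout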;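 for viability, T/C: 100% = DMSO vehicle control viability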
Details: for IC50: curve of first compound; for viability, T/C: stronger effect = lower value
Source text: RAS pathway inhibitors in Combinations in Complex Spheroids
A high-throughput screen of multi-cell type tumor spheroids was designed to identify active combinations of RAS pathway inhibitors and targeted small molecules. Complex spheroids include a stromal component modeled by human endothelial cells (HUVEC) and fibroblasts modeled by human mesenchymal stem cells (MSCs). The concentration ranges selected for each drug and investigational agent were based upon clinically achievable concentrations if the clinical Cmax of the agent was known.
Compounds. The drugs and investigational agents: abemaciclib (NSC768073), cobimetinib (NSC768068), divarasib (GDC6063, NSC841802), docetaxel (NSC628503), GDC-1971 (RLY-1971, NSC841576), gemcitabine (NSC613327), inavolisib (NSC800729), ipatasertib (NSC767898), KB-0742 (NSC834161), MRTX-1133 (NSC836407), osimertinib (NSC779217), RMC-4630 (NSC839698), RMC-6236 (NSC851965), RMC-6291 (NSC852671), Ro-3306 (NSC812927), sapanisertib (NSC764658), SN-38 (NSC673596), staurosporine (NSC755774), SY5609 (NSC837396), and tovorafenib (DAY101, NSC766906), were obtained from the National Cancer Institute (NCI) Developmental Therapeutics Program Chemical Repository. The FDA-approved anticancer drug set is available from the NCI Developmental Therapeutics Program. […] The stock solutions were prepared in dimethyl sulfoxide (DMSO, Sigma-Aldrich, St. Louis, MO, cat. D2650) at 800-fold the tested concentration and stored at -70 degrees C prior to their use. All drugs and investigational agents were tested over a range starting from a high concentration at or near the clinical Cmax and decreasing in half-log increments. If the clinical Cmax for an agent had not been determined, the highest concentration tested was 10 microM.
Cell Culture. All cells were maintained in an incubator at 37 degrees C and 5% CO2 with 95% humidity. The PDC lines were cultured according to standard operating procedures established by the NCI PDMR. All PDCs were thawed and cultured in Matrigel-coated flasks prepared with a working solution of 1X Ham's F-12 nutrient mix, without supplementation (Invitrogen, Waltham, MA, cat. 11765054), 100 U/mL penicillin-streptomycin (Invitrogen, cat. 15140122), and 2.5% Matrigel (Corning Inc., Corning, NY, cat. 354248) for the first three passages. The 362531-283-R-J2-PDC and 782815-120-R-J1-PDC lines were cultured in 6C/Colon 1B media, which includes advanced DMEM/F-12 (Thermo Fisher Scientific, cat. 12634028), 10 mM HEPES (Thermo Fisher Scientific, cat. 15630080), 1X GlutaMAX supplement (Thermo Fisher Scientific, cat. 35050061), 0.1 mg/mL primocin (InvivoGen, San Diego, CA, cat. ant-pm-2), 10% defined fetal bovine serum, heat inactivated (HyClone Laboratories Inc., Logan, UT, cat. SH30070.03HI), 50% L-WRN conditioned media (ATCC, cat. CRL-3276), 1.25 mM N-Acetyl-L-cysteine (Sigma-Aldrich, cat. A9165), 10 mM nicotinamide (Sigma-Aldrich, cat. N0636), 1X B-27 supplement (Thermo Fisher Scientific, cat. 17504044), 1X N-2 supplement (Thermo Fisher Scientific, cat. 17502048), 50 ng/mL human EGF (Thermo Fisher Scientific, cat. PHG0311), and 10 microM Y-27632 dihydrochloride (Tocris Bioscience, cat. 1254). The K12877-001-R-J1-PDC line was cultured in 6I media, which includes all 6C/Colon 1B media plus 10 ng/mL human FGF-10 (PeproTech, cat. 100-26), 1 ng/mL human FGF-2 (PeproTech, cat. 100-18B), 1 µM prostaglandin E2 (Tocris Bioscience, cat. 2296), […] hydrocortisone (Sigma-Aldrich, cat. H4001), and […] bovine insulin (Sigma-Aldrich, cat. I6634). The K86415-001-R-J1-PDC line was cultured in 6D media, which includes all 6C/Colon 1B media components minus the L-WRN conditioned media. The 485176-168-R4-J1-PDC was cultured in PANC media, which includes all 6C/Colon 1B media plus 100 ng/mL human FGF-10 (PeproTech, cat. 100-26), 500 nM SB-431542 (Selleckchem, cat. S1067), and 10 nM gastrin (Tocris Bioscience, cat. 3006). […]

[1] = second compound 0.0316 µM, first compound 0.0316 µM
[2] = second compound 0.0316 µM, first compound 0.1 µM
[3] = second compound 0.0316 µM, first compound 0.316 µM
[4] = second compound 0.0316 µM, first compound 1 µM
[5] = second compound 0.0316 µM, first compound 3.16 µM
[6] = second compound 0.0316 µM, first compound 10 µM
[7] = second compound 0.1 µM, first compound 0.0316 µM
[8] = second compound 0.1 µM, first compound 0.1 µM
[9] = second compound 0.1 µM, first compound 0.316 µM
[10] = second compound 0.1 µM, first compound 1 µM
[11] = second compound 0.1 µM, first compound 3.16 µM
[12] = second compound 0.1 µM, first compound 10 µM
[13] = second compound 0.316 µM, first compound 0.0316 µM
[14] = second compound 0.316 µM, first compound 0.1 µM
[15] = second compound 0.316 µM, first compound 0.316 µM
[16] = second compound 0.316 µM, first compound 1 µM
[17] = second compound 0.316 µM, first compound 3.16 µM
[18] = second compound 0.316 µM, first compound 10 µM
[19] = second compound 1 µM, first compound 0.0316 µM
[20] = second compound 1 µM, first compound 0.1 µM
[21] = second compound 1 µM, first compound 0.316 µM
[22] = second compound 1 µM, first compound 1 µM
[23] = second compound 1 µM, first compound 3.16 µM
[24] = second compound 1 µM, first compound 10 µM
[25] = second compound 3.16 µM, first compound 0.0316 µM
[26] = second compound 3.16 µM, first compound 0.1 µM
[27] = second compound 3.16 µM, first compound 0.316 µM
[28] = second compound 3.16 µM, first compound 1 µM
[29] = second compound 3.16 µM, first compound 3.16 µM
[30] = second compound 3.16 µM, first compound 10 µM
[31] = second compound 10 µM, first compound 0.0316 µM
[32] = second compound 10 µM, first compound 0.1 µM
[33] = second compound 10 µM, first compound 0.316 µM
[34] = second compound 10 µM, first compound 1 µM
[35] = second compound 10 µM, first compound 3.16 µM
[36] = second compound 10 µM, first compound 10 µM

CC1(O)CCCC1n1c(=O)c(C(F)F)cc2cnc(NC3CCN(S(C)(=O)=O)CC3)nc21 (centres undefined) + C#Cc1c(F)ccc2cc(O)cc(-c3ncc4c(N5CC6CCC(C5)N6)nc(OCC56CCCN5CC(F)C6)nc4c3F)c12
IC50 (second compound 0.0316 µM): 383 nM | IC50 (second compound 0.1 µM): 398 nM | IC50 (second compound 0.316 µM): 343 nM | IC50 (second compound 1 µM): 324 nM | IC50 (second compound 3.16 µM): 146 nM | IC50 (second compound 10 µM): < 31.6 nM | viability, T/C [1]: 87.9% | viability, T/C [2]: 53.1% | viability, T/C [3]: 43.3% | viability, T/C [4]: 40.5% | viability, T/C [5]: 47.8% | viability, T/C [6]: 0.9% | viability, T/C [7]: 91.3% | viability, T/C [8]: 52.2% | viability, T/C [9]: 45.3% | viability, T/C [10]: 48.8% | viability, T/C [11]: 35.7% | viability, T/C [12]: 1.45% | viability, T/C [13]: 91.4% | viability, T/C [14]: 50.7% | viability, T/C [15]: 38% | viability, T/C [16]: 42% | viability, T/C [17]: 42.2% | viability, T/C [18]: 1.44% | viability, T/C [19]: 84.7% | viability, T/C [20]: 53.6% | viability, T/C [21]: 37.2% | viability, T/C [22]: 45.2% | viability, T/C [23]: 40% | viability, T/C [24]: 3.73% | viability, T/C [25]: 66.6% | viability, T/C [26]: 47.9% | viability, T/C [27]: 34% | viability, T/C [28]: 41.4% | viability, T/C [29]: 27.6% | viability, T/C [30]: 1.45% | viability, T/C [31]: 42% | viability, T/C [32]: 37.3% | viability, T/C [33]: 27.8% | viability, T/C [34]: 29.4% | viability, T/C [35]: 32.5% | viability, T/C [36]: 1.15%

CCC(CC)c1cc(NC2CCC(N)C2)n2nccc2n1 (centres undefined) + C#Cc1c(F)ccc2cc(O)cc(-c3ncc4c(N5CC6CCC(C5)N6)nc(OCC56CCCN5CC(F)C6)nc4c3F)c12
IC50 (second compound 0.0316 µM): 1650 nM | IC50 (second compound 0.1 µM): 1860 nM | IC50 (second compound 0.316 µM): 1800 nM | IC50 (second compound 1 µM): 1750 nM | IC50 (second compound 3.16 µM): 1540 nM | IC50 (second compound 10 µM): 1120 nM | viability, T/C [1]: 108% | viability, T/C [2]: 111% | viability, T/C [3]: 107% | viability, T/C [4]: 88.2% | viability, T/C [5]: 0.7% | viability, T/C [6]: 0.37% | viability, T/C [7]: 112% | viability, T/C [8]: 115% | viability, T/C [9]: 118% | viability, T/C [10]: 107% | viability, T/C [11]: 1.36% | viability, T/C [12]: 1.21% | viability, T/C [13]: 122% | viability, T/C [14]: 105% | viability, T/C [15]: 111% | viability, T/C [16]: 101% | viability, T/C [17]: 0.69% | viability, T/C [18]: 0.93% | viability, T/C [19]: 108% | viability, T/C [20]: 104% | viability, T/C [21]: 99.9% | viability, T/C [22]: 96.7% | viability, T/C [23]: 0.48% | viability, T/C [24]: 0.25% | viability, T/C [25]: 83.7% | viability, T/C [26]: 90.8% | viability, T/C [27]: 88.3% | viability, T/C [28]: 79.5% | viability, T/C [29]: 0.74% | viability, T/C [30]: 1.33% | viability, T/C [31]: 48.1% | viability, T/C [32]: 47.3% | viability, T/C [33]: 56% | viability, T/C [34]: 70.2% | viability, T/C [35]: 0.95% | viability, T/C [36]: 0.56%
